Results taken from US20140024653A1, “COMPOSITIONS AND METHODS FOR TREATING CANCER USING PI3K INHIBITOR AND MEK INHIBITOR” (priority 2011, published 2014).
Like-named read-outs stand apart in the source and are kept apart here.

Experiments:
[1] = system: PC-3, U87-MG, A2058, WM-266-4 and MCF7 xenografts; details: oral administration alone; PTEN-deficient PC-3, U87-MG, A2058, WM-266-4 or PIK3CA mutated MCF7 xenografts; cited from earlier work
[2] = system: human pancreatic MiaPaCa-2; assay: antitumor activity against subcutaneous MiaPaCa-2 xenografts; format: in vivo, nude mice; details: XL-147 50 mg/kg po QD, 21 days; 50 mg/kg
Method: The human pancreatic cancer cell line MiaPaCa-2 (American Type Culture Collection, Manassas Va.), was cultured in MEM medium containing 10% fetal bovine serum, 1% essential amino acid, 1% sodium pyruvate (Life Technologies, Carlsbad, Calif.). […] Cells were re-suspended in PBS (Life Technologies, Carlsbad, Calif.) and then mixed 1:1 with Matrigel (BD Biosciences, San Jose, Calif.). Cells were stored at 4° C. until implantation. MiaPaCa-2 cells (10×10^6 in a 200 μl PBS:Matrigel (1:1) suspension) were subcutaneously injected into the right flank area of female nude (Crl:NU-Foxn1nu) mice (6-8 weeks old, Charles River Laboratories, Wilmington, Mass.). All mice in this study were used according to the guidelines approved by the EMD-Serono Institutional Care and Animal Use Committee (IACUC), #07-003. Developing tumors located in the right flank area of female nude mice were measured over time with digital calipers. […] The remaining tumor-bearing mice were randomized into seven experimental groups (n=9), so that each group had the same mean tumor volume. […] The treatments began on the seventh day following implantation of the Miapaca-2 cells, which was designated as Day 0 for data evaluation purposes. […] Body weights and tumor volumes were assessed twice per week post treatment initiation. […] Efficacy was determined by analyzing tumor volumes and the percent ΔT/ΔC (% ΔT/ΔC). Tumor volume was determined by using the tumor length (1) and width (w) measurements and calculating the volume with the equation 1*w^2/2. The length was measured along the longest axis of the tumor and width was measured perpendicular to that length. The mean percent of actual tumor growth inhibited by the treatments was calculated as follows: [% ΔT/ΔC=(([…]))×100%], where TV=tumor volume, f=final, i=initial and Ctrl=control group. Tolerability was assessed by regarding percent body weight difference during the treatment period. Percent body weight difference was calculated as follows: [% Body weight difference=(BWc-BWi)/BWi×100%], where BW=body weight, c=current, i=initial.

[3] = system: human primary colon tumors CR-LRB-013P; assay: antitumor activity against subcutaneous CR-LRB-013P xenografts; format: in vivo
Method: The human primary colon carcinoma CR-LRB-013P tumor model was established by implanting (SC) small tumor fragments and was maintained in SCID female mice using serial passages.
(§1) Treatments were administered on measurable tumors. […] Mice were checked daily, and adverse clinical reactions noted.
(§2) Animal body weights included the tumor weight.
(§3) The primary efficacy end points are ΔT/ΔC, percent median regression, partial and complete regressions (PR and CR). Statistical analyses were performed on SAS system release 8.2 for SUN4 via Everstat V5 software and SAS 9.2 software. A probability less than 5% (p<0.05) was considered as significant.

[4] = system: human colon carcinoma HCT 116; assay: HCT116 tumor growth in fluorescence molecular tomography study; format: in vivo, SCID mice; details: (2a) 50 mg/kg oral daily day 11 to day 17; p=0.023
[5] = system: HCT116 tumor vascular permeability; assay: tumor vascular permeability, Evans Blue extravasation / Dextran-Fitc; format: in vivo, SCID mice; details: (2a) 50 mg/kg oral daily day 11 to day 13
Method: HCT116 tumor cells were implanted subcutaneously in the intra-scapular region in SCID mice. […] Each agent was given by oral route on a daily schedule. Tumor growth was monitored throughout the experiment by callipering the tumors. To quantify tumor vascular permeability, tumors were excised under ketamine/Xylazine (120/6 mg/kg ip) anesthesia at day 13, 4 hours post last treatment, 30 min after 0.5% Evans Blue iv injection, and 2 min post Dextran-Fitc 100 mg/kg iv injection. Tumors were then snap frozen, and 25 μm sections obtained for fluorescence quantification. Tumors sections were imaged with Icyte at 488 nm for vascular Dextran-Fitc determination and at 633 nm for Evans-Blue extravasation determination. Respective fluorescence were quantified as the sum of integral phantoms of fluorescence intensity and expressed as the mean ratio of Evans-Blue signal/Dextran-Fitc Signal.

[6] = system: human colon carcinoma HCT 116
Method: Mice were over 18 g at start of treatment after an acclimatization time of at least 5 days. […] The mice were housed on a 12 hours light/dark cycle.
Human colon carcinoma HCT 116 cells were purchased at American Type Culture Collection [(ATCC), Rockville, Md., USA). The HCT 116 cells were cultured in Dulbecco's modified Eagle's medium (DMEM) (Invitrogen).
The animals required to begin a given experiment were pooled and implanted monolaterally on day 0. Treatments were administered on measurable tumors. The solid tumors were allowed to grow to the desired volume range (animals with tumors not in the desired range were excluded). The mice were then pooled and unselectively distributed to the various treatment and control groups. […] The dosages are expressed in mg/kg, based on the body weight at start of therapy. Mice were checked daily, and adverse clinical reactions noted. Each group of mice was weighed as a whole daily until the weight nadir was reached. Then, groups were weighed once to thrice weekly until the end of the experiment. Tumors were measured with a caliper 2 to 3 times weekly until final sacrifice for sampling time, tumor reached 2000 mm^3 or until the animal died (whichever comes first). Solid tumor volumes were estimated from two-dimensional tumor measurements and calculated according to the following equation:
Changes in tumor volume for each treated (T) and control (C) group were calculated for each tumor by subtracting the tumor volume on the day of first treatment (staging day) from the tumor volume on the specified observation day. The median ΔT is calculated for the treated group, and the median ΔC is calculated for the control group. Then the ratio ΔT/ΔC is calculated and expressed as a percentage. The dose is considered as therapeutically active when ΔT/ΔC is lower than 40% and very active when ΔT/ΔC is lower than 10%.
The percent of tumor regression is defined as the % of tumor volume decrease in the treated group at a specified observation day compared to its volume on the first day of treatment. At a specific time point and for each animal, % regression is calculated. The median % regression is then calculated for the group using the following equation:
Partial regression: Regressions are defined as partial if the tumor volume decreases to 50% of the tumor volume at the start of treatment.
Complete regression: The CR is achieved when tumor volume=0 mm^3 (CR is considered when tumor volume cannot be recorded).

[7] = system: human primary colon tumors CR-LRB-009C; assay: antitumor activity against subcutaneous CR-LRB-009C xenografts; format: in vivo
Method: The human primary colon carcinoma CR-LRB-009C tumor model was established by implanting (SC) small tumor fragments and was maintained in SCID female mice using serial passages.
as §1, §2, §3

[8] = chemical stability of dosing stock solution; format: physicochemical; details: in the dark at 4° C.
Method: Compound (2a) formulation was prepared in water for injection. The stock solution was chemically stable 7 days in the dark at 4° C. […] The pH of the final solution was 3. […]

[9] = (2a) 75 mg/kg PO daily days 33-50
[10] = as single agents or used in combination
[11] = study 1, (2a) 50 mg/kg PO daily days 11-18
[12] = study 1, (2a) 75 mg/kg PO daily days 11-18
[13] = study 2, (2a) 50 mg/kg PO daily days 11-18
[14] = study 2, (2a) 75 mg/kg PO daily days 11-18
[15] = study 3, (2a) 50 mg/kg PO daily days 11-20
[16] = study 3, (2a) 75 mg/kg PO daily days 11-20
[17] = (2a) 75 mg/kg PO daily days 11-21

## COc1ccc(Cl)c(Nc2nc3ccccc3nc2NS(=O)(=O)c2cccc(NC(=O)C(C)(C)N)c2)c1 [Compound (2a), N-(3-{[(3-{[2-chloro-5-(methoxy)phenyl]amino}quinoxalin-2-yl)amino]sulfonyl}phenyl)-2-methylalaninamide]
[1]
  tumor growth: inhibits tumor growth
[2]
  % ΔT/ΔC: 71.2%
[3]; [9]
  Average body weight change in % per mouse at nadir: −9.2 (50) %
  Drug death: 0/7
  Median ΔT/ΔC in % day 50: 53%
  Regressions Complete: 0/7
  Regressions Partial: 0/7
[3]; [10]
  tolerability: tolerated, inducing some BWL but not reaching toxicity
[4]
  ΔT/ΔC at the end of study: 36%
[5]
  decrease of the Evans-Blue/Dextran-Fitc ratio compared to control: −8%
[6]; [11]
  Average body weight change in % per mouse at nadir: −5.8 (18) %
  Drug death: 0/7
  Median ΔT/ΔC in % day 18: 62%
  Regressions Complete: 0/7
  Regressions Partial: 0/7
[6]; [12]
  Average body weight change in % per mouse at nadir: −8.3 (18) %
  Drug death: 0/7
  Median ΔT/ΔC in % day 18: 80%
  Regressions Complete: 0/7
  Regressions Partial: 0/7
[6]; study 1, as single agents or used in combination
  tolerability: well-tolerated, inducing minimal BWL
[6]; [13]
  Average body weight change in % per mouse at nadir: −7.7 (18) %
  Drug death: 0/7
  Median ΔT/ΔC in % day 18: 52%
  Regressions Complete: 0/7
  Regressions Partial: 0/7
[6]; [14]
  Average body weight change in % per mouse at nadir: −6.7 (18) %
  Drug death: 0/7
  Median ΔT/ΔC in % day 18: 56%
  Regressions Complete: 0/7
  Regressions Partial: 0/7
[6]; study 2, as single agents
  tolerability: well-tolerated, inducing minimal BWL
[6]; [15]
  Average body weight change in % per mouse at nadir: −7.8 (19) %
  Drug death: 0/10
  Median ΔT/ΔC in % day 20: 66%
  Regressions Complete: 0/10
  Regressions Partial: 0/10
[6]; [16]
  Average body weight change in % per mouse at nadir: −8.5 (20) %
  Drug death: 0/10
  Median ΔT/ΔC in % day 20: 64%
  Regressions Complete: 0/10
  Regressions Partial: 0/10
[6]; study 3, as single agents
  tolerability: well-tolerated, inducing minimal BWL
[7]; [17]
  Average body weight change in % per mouse at nadir: −15.8 (21) %
  Drug death: 0/7
  Median ΔT/ΔC in % day 21: 39%
  Regressions Complete: 0/7
  Regressions Partial: 0/7
[7]; [10]
  tolerability: tolerated, inducing some BWL but not reaching toxicity
[8]; in 1N HCl and water for injection, pH 3
  stock solution chemically stable: 7 days
[8]; in water for injection
  stock solution chemically stable: 7 days
